# According to US6639078B1, “Assays for ligands for nuclear receptors” (SmithKline Beecham Corporation, priority 1998, dated 2003):
# Like-named read-outs stand apart in the source and are kept apart here.
# Key:
# [1] = target: T1, human FXR LBD (Homo sapiens, UniProt Q96RI1); assay: FRET ligand-sensing assay: SRC1 peptide binding to FXR LBD; settings: 100 μM compound (FIG. 3A/4a)
# T1 sequence (Q96RI1 222-472 isoform Q96RI1-2): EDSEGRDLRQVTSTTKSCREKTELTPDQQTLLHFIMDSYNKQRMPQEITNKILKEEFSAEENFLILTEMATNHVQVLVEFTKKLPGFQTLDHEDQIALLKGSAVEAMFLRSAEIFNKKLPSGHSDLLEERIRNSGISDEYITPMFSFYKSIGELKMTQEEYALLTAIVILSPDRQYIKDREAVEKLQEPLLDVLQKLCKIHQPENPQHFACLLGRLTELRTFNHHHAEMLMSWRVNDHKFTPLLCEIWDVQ
# [2] = target: T2, full-length human FXR (Homo sapiens, UniProt Q96RI1); assay: CAT reporter assay in CV-1 cells transfected with FXR, human RXRα and FXREhsp27-tk-CAT; settings: 100 μM bile acid or farnesol, 10 μM steroid or TTNPB
# T2 sequence (Q96RI1 1-472 isoform Q96RI1-2): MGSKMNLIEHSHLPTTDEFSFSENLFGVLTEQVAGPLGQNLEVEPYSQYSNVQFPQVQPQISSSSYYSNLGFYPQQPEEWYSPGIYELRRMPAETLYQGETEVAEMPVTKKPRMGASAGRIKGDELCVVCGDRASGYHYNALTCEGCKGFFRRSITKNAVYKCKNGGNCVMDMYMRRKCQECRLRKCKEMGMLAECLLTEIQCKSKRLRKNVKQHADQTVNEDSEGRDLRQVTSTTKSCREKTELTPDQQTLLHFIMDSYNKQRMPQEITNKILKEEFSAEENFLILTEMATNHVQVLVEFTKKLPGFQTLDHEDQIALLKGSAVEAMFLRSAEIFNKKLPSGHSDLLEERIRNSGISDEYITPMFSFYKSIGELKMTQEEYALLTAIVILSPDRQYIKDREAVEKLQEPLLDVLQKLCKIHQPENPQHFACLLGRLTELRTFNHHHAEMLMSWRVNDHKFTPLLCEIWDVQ
# T2 sequence (P19793 1-462 partner): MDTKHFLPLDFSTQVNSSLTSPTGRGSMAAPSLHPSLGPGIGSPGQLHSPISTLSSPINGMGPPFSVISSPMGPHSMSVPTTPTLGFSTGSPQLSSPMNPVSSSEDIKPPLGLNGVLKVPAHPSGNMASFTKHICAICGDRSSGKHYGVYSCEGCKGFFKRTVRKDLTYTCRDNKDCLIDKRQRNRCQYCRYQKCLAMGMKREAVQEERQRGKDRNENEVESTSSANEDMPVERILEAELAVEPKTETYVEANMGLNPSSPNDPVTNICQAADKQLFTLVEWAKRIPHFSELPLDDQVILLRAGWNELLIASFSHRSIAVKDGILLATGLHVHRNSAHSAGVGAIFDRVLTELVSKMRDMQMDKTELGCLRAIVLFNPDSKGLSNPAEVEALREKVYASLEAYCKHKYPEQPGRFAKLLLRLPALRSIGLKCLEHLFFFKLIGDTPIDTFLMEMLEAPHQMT
# Excerpt: CV-1 cells were transiently transfected with an expression plasmid encoding the human FXR and a reporter construct containing the hsp27-EcRE, a response element that is known to be activated by the FXR/RXR heterodimer.
# [3] = target: T1, human FXR LBD; assay: FRET ligand-sensing assay in the presence of 50 μM CDCA (competition with CDCA for FXR binding)
# Excerpt: Data are expressed as the means ± SD derived from three independent experiments.
# Data were collected using a Wallac Victor™ fluorescence reader in a time-resolved mode.
Compound,effect on interaction between FXR LBD and SRC1 peptide [1],activation of full-length human FXR [2],also measured
"C[C@H](CCC(=O)O)[C@H]1CC[C@H]2[C@@H]3[C@H](O)C[C@@H]4C[C@H](O)CC[C@]4(C)[C@H]3C[C@H](O)[C@]12C [CA, cholic acid]",no effect,inactive,–
"C[C@H](CCC(=O)O)[C@H]1CC[C@H]2[C@@H]3CC[C@@H]4C[C@H](O)CC[C@]4(C)[C@H]3C[C@H](O)[C@]12C [DCA, deoxycholic acid]",–,–,IC50 [3]: 100 µM
C/C(=C\c1ccc(C(=O)O)cc1)c1ccc2c(c1)C(C)(C)CCC2(C)C [TTNPB],did not promote interactions,activate FXR,effect on CDCA-FXR-SRC1 complex (fluorescence signal) ([3]; in the presence of 50 μM CDCA): disrupted the CDCA-FXR-SRC1 complex in a dose-dependent fashion
C[C@H](CCC(=O)O)[C@H]1CC[C@H]2[C@@H]3[C@H](O)[C@@H](O)[C@@H]4C[C@H](O)CC[C@]4(C)[C@H]3CC[C@]12C [α-muricholic acid],–,no activation,–
C[C@H](CCC(=O)O)[C@H]1CC[C@H]2[C@@H]3[C@@H](O)[C@@H](O)[C@@H]4C[C@H](O)CC[C@]4(C)[C@H]3CC[C@]12C [β-muricholic acid],–,no activation,–
muricholic acid [MCA],–,–,"IC50 ([3]; read-out: half-maximal inhibitor concentration IC50 in the cell-free ligand sensing assay, in the presence of 50 μM CDCA): > 1000 µM"
